Results from ChEMBL document CHEMBL5338813 (J Med Chem, 2023).
The source made the active and inactive calls. The calls are words filed in the database; no cut-off is given here.

Columns and labels:
Cryptosporidium parvum [1] = assay: Antiparasitic activity against Cryptosporidium parvum infected in human HCT-8 cells assessed as parasitic growth inhibition incubated for 48 hrs by fluorescence microscopic analysis; format: functional, organism-based; conditions: HCT-8, 48 h
HCT-8 = assay: Cytotoxicity against human HCT-8 cells assessed as reduction in cell number upto 50 uM incubated for 48 hrs by; format: toxicity, cell-based; conditions: hct-8, 48 h
[2] = target: Voltage-gated inwardly rectifying potassium channel KCNH2 (Homo sapiens, UniProt Q12809); assay: (§1) Displacement of [3H]Dofetilide from human ERG at 30 uM by automated patch clamp assay relative to control; conditions: 30 µM
Chain of Voltage-gated inwardly rectifying potassium channel KCNH2 (Q12809 whole entry): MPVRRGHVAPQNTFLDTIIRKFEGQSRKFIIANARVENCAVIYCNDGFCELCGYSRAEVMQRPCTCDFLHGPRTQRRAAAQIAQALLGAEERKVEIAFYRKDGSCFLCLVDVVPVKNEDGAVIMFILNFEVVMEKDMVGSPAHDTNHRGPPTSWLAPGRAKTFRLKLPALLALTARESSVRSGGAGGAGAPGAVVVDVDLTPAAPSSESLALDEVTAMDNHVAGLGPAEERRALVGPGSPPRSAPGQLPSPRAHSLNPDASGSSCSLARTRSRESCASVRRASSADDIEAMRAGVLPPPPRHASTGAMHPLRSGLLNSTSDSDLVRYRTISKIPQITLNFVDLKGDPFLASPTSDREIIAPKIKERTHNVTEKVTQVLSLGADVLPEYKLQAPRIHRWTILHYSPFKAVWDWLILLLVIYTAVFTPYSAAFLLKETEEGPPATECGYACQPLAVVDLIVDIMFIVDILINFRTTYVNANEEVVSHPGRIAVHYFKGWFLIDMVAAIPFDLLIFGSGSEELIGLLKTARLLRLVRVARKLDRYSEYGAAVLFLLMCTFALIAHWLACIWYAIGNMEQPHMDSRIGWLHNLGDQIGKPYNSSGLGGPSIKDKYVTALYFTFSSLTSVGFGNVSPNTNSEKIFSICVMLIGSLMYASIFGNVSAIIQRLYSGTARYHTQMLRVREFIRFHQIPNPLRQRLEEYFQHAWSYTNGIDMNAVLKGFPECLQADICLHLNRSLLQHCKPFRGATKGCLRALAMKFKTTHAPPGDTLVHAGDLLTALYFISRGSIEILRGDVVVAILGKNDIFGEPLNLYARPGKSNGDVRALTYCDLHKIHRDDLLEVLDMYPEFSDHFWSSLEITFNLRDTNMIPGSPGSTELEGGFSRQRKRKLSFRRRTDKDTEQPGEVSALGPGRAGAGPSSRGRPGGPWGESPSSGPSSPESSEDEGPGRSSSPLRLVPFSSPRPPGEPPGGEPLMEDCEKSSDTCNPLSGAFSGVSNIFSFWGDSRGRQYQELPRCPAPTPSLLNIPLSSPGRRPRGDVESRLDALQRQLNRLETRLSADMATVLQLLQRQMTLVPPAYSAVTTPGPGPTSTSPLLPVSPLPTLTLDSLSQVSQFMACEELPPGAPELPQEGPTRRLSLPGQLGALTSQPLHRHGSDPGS

[3] = Metabolic stability in mouse liver microsomes assessed as intrinsic clearance measured upto 60 mins; format: ADME, Microsome; conditions: read-out: CLH
[4] = Metabolic stability in mouse liver microsomes assessed as half life measured upto 60 mins; format: ADME, Microsome; conditions: 1 h
[5] = Metabolic stability in mouse intestinal S9 fraction assessed as intrinsic clearance measured upto 60 mins; format: ADME, subcellular, Intestine; conditions: read-out: CLH
[6] = Metabolic stability in mouse intestinal S9 fraction assessed as half life measured upto 60 mins; format: ADME, subcellular, Intestine; conditions: s9, 1 h
[7] = Plasma protein binding in mouse at 1 uM incubated for 30 mins by LC-MS/MS analysis; format: ADME, cell-free; conditions: 0.5 h
[8] = Plasma protein binding in human at 1 uM incubated for 30 mins by LC-MS/MS analysis; format: ADME, cell-free; conditions: 0.5 h
[9] = AUC in mouse plasma at 5 mg/kg, po measured upto 24 hrs by LC-MS/MS analysis; format: ADME, organism-based; set-up: dose 5 mg/kg, time < 24 hrs, route po; conditions: in vivo
[10] = AUC in mouse Jejunum at 5 mg/kg, po measured upto 24 hrs by LC-MS/MS analysis; format: ADME, organism-based; set-up: dose 5 mg/kg, time < 24 hrs, route po; conditions: in vivo
[11] = Cmax in mouse plasma at 5 mg/kg, po measured upto 24 hrs by LC-MS/MS analysis; format: ADME, organism-based; set-up: time < 24 hrs, dose 5 mg/kg, route po; conditions: in vivo
[12] = Cmax in mouse Jejunum at 5 mg/kg, po measured upto 24 hrs by LC-MS/MS analysis; format: ADME, organism-based; set-up: dose 5 mg/kg, time < 24 hrs, route po; conditions: in vivo
[13] = Tmax in mouse plasma at 5 mg/kg, po measured upto 24 hrs by LC-MS/MS analysis; format: ADME, organism-based; conditions: in vivo
[14] = Tmax in mouse Jejunum at 5 mg/kg, po measured upto 24 hrs by LC-MS/MS analysis; format: ADME, organism-based; conditions: in vivo
hERG (KCNH2) [15] = target: T1, hERG (KCNH2) (Homo sapiens, UniProt Q12809); assay: as §1; conditions: probe [3H]Dofetilide, read-out: Activity
T1 sequence (Q12809 whole entry): as above

hERG (KCNH2) [16] = target: T1, hERG (KCNH2); assay: Inhibition of human ERG expressed in CHO cells at 1 uM by automated patch clamp assay relative to control; format: cell-based; conditions: CHO cells that express hERG
hERG (KCNH2) [17] = target: T1, hERG (KCNH2); assay: Inhibition of human ERG expressed in CHO cells at 10 uM by automated patch clamp assay relative to control; format: cell-based; conditions: CHO cells that express hERG
hERG (KCNH2) [18] = target: T1, hERG (KCNH2); assay: Inhibition of human ERG expressed in CHO cells at 30 uM by automated patch clamp assay relative to control; format: cell-based; conditions: CHO cells that express hERG
Cryptosporidium parvum [19] = assay: Antiparasitic activity against Cryptosporidium parvum infected in mouse assessed as reduction in parasitic growth at >= 5 mg/kg, po pre-infected with parasite for 7 days followed by compound addition twice daily for 4 days; format: functional; set-up: scale not given: the % may be the effect or the level left; conditions: time 4 day
Cryptosporidium parvum [20] = assay: Antiparasitic activity against Cryptosporidium parvum infected in mouse assessed as relapse in parasite growth at >=5 mg/kg, po pre-infected with parasite for 7 days followed by compound addition twice daily for 4 days; format: functional, organism-based; conditions: time 4.0 day
Cryptosporidium parvum [21] = assay: Antiparasitic activity against Cryptosporidium parvum infected in mouse assessed as relapse in parasite growth at 5 mg/kg, po pre-infected with parasite for 7 days followed by compound addition twice daily for 4 days; format: functional, organism-based; conditions: time 4.0 day

Compound | EC50 (Cryptosporidium parvum [1]) [nM] | Activity (HCT-8) | further results
O=C(Cc1cc(C(F)(F)F)cc(C(F)(F)F)c1)N1CCN(c2ccc3nncn3n2)CC1 | 320 | Non-Toxic | Activity [2]: 54%
O=C(Cc1ccc(Cl)c(Cl)c1)N1CCN(c2ccc3nncn3n2)CC1 |  |  | Activity [2]: 46%; microsomal CLint [3]: 85.2 µL/min/mg; t1/2 [4]: 1.38 h; microsomal CLint [5]: < 5.8 µL/min/mg; t1/2 [6]: > 2 h; PPB [7]: 92.7%; PPB [8]: 98.2%; AUC [9]: 3387 ng·h/mL; AUC [10]: 3013 ng·h/g; Cmax [11]: 532 ng/mL; Cmax [12]: 317 ng/g; Tmax [13]: 1 h; Tmax [14]: 1 h
O=C(Cc1ccc(F)c(CF)c1)N1CCN(c2ccc3nncn3n2)CC1 | 760 | Non-Toxic | inhibition at 30 µM (hERG (KCNH2) [15]): 38%
O=C(Cc1ccc(F)c(C(F)(F)F)c1)N1CCN(c2ccc3nncn3n2)CC1 | 70 | Non-Toxic | Activity [2]: 43%; inhibition at 1 µM (hERG (KCNH2) [16]): 15%; inhibition at 10 µM (hERG (KCNH2) [17]): 58%; inhibition at 30 µM (hERG (KCNH2) [18]): 84%; microsomal CLint [3]: < 57.8 µL/min/mg; t1/2 [4]: > 2 h; microsomal CLint [5]: < 5.8 µL/min/mg; t1/2 [6]: > 2 h; PPB [7]: 51.8%; AUC [9]: 3300 ng·h/mL; AUC [10]: 2998 ng·h/g; Cmax [11]: 568 ng/mL; Cmax [12]: 299 ng/g; Tmax [13]: 1 h; Tmax [14]: 2 h; Activity (Cryptosporidium parvum [19]): >99%; Activity (Cryptosporidium parvum [20]): Active; Activity (Cryptosporidium parvum [21]): inactive
Cc1cc(CC(=O)N2CCN(c3ccc4nncn4n3)CC2)ccc1Cl | 270 | Non-Toxic | 
O=C(Cc1ccc(F)c(Cl)c1)N1CCN(c2ccc3nncn3n2)CC1 | 240 | Non-Toxic | 
O=C(Cc1ccc(-c2ccccc2)cc1)N1CCN(c2ccc3nncn3n2)CC1 | 56000 | Non-Toxic | 
Cc1cc(CC(=O)N2CCN(c3ccc4nncn4n3)CC2)cc(C(F)(F)F)c1F | 70 | Non-Toxic | 
O=C(Cc1ccc(F)c(C(F)F)c1)N1CCN(c2ccc3nncn3n2)CC1 | 470 | Non-Toxic | inhibition at 30 µM (hERG (KCNH2) [15]): 23%
N#Cc1cc(CC(=O)N2CCN(c3ccc4nncn4n3)CC2)ccc1F | 2100 | Non-Toxic | 
O=C(Cc1cc(F)cc(F)c1)N1CCN(c2ccc3nncn3n2)CC1 | 5700 | Non-Toxic | 
O=C(Cc1ccccc1F)N1CCN(c2ccc3nncn3n2)CC1 | > 60000 | Non-Toxic | 
O=C(Cc1cccc(-c2ccccc2)c1)N1CCN(c2ccc3nncn3n2)CC1 | 25000 | Non-Toxic | 
O=C(Cc1ccccc1Cl)N1CCN(c2ccc3nncn3n2)CC1 | > 25000 | Non-Toxic | 
O=C(Cc1cccc(Br)c1)N1CCN(c2ccc3nncn3n2)CC1 | 2200 | Non-Toxic | 
O=C(Cc1ccc([N+](=O)[O-])c(F)c1)N1CCN(c2ccc3nncn3n2)CC1 | 25000 | Non-Toxic | 
O=C(Cc1ccc(Br)cc1)N1CCN(c2ccc3nncn3n2)CC1 | 1100 | Non-Toxic | 
O=C(Cc1ccc(Cl)c(F)c1)N1CCN(c2ccc3nncn3n2)CC1 | 410 | Non-Toxic | 
Cc1cc(CC(=O)N2CCN(c3ccc4nncn4n3)CC2)ccc1F | 370 | Non-Toxic | 
O=C(Cc1ccc(Br)c(F)c1)N1CCN(c2ccc3nncn3n2)CC1 | 770 | Non-Toxic | 
O=C(Cc1ccc(F)c([N+](=O)[O-])c1)N1CCN(c2ccc3nncn3n2)CC1 | 620 | Non-Toxic | 
Cc1cc(F)ccc1CC(=O)N1CCN(c2ccc3nncn3n2)CC1 | 22000 | Non-Toxic | 

Compound | EC50 (Cryptosporidium parvum [1]) [nM] | Activity (HCT-8) | further results
C#Cc1ccc(CC(=O)N2CCN(c3ccc4nncn4n3)CC2)cc1 | 880 | Non-Toxic | 
O=C(Cc1cc(F)cc(Cl)c1)N1CCN(c2ccc3nncn3n2)CC1 | 880 | Non-Toxic | 
O=C(Cc1cccc(O)c1)N1CCN(c2ccc3nncn3n2)CC1 | 34000 | Non-Toxic | 
O=C(Cc1cc(Cl)ccc1Cl)N1CCN(c2ccc3nncn3n2)CC1 | 58000 | Non-Toxic | 
O=C(Cc1cccc(C(F)(F)F)c1F)N1CCN(c2ccc3nncn3n2)CC1 | 62000 | Non-Toxic | 
Cc1cccc(CC(=O)N2CCN(c3ccc4nncn4n3)CC2)c1 | 12000 | Non-Toxic | 
Cc1ccccc1CC(=O)N1CCN(c2ccc3nncn3n2)CC1 | > 50000 | Non-Toxic | 
O=C(Cc1ccc(Br)c(Cl)c1)N1CCN(c2ccc3nncn3n2)CC1 | 250 | Non-Toxic | 
N#Cc1cccc(CC(=O)N2CCN(c3ccc4nncn4n3)CC2)c1 | 38000 | Non-Toxic | 
O=C(Cc1ccc(F)c(OC(F)(F)F)c1)N1CCN(c2ccc3nncn3n2)CC1 | 670 | Non-Toxic | 
N#Cc1ccc(CC(=O)N2CCN(c3ccc4nncn4n3)CC2)cc1F | 1600 | Non-Toxic | 
Cc1ccc(CC(=O)N2CCN(c3ccc4nncn4n3)CC2)cc1Cl | 1100 | Non-Toxic | 
O=C(Cc1cc(C(F)(F)F)ccc1F)N1CCN(c2ccc3nncn3n2)CC1 | 15000 | Non-Toxic | 
O=C(Cc1cc(F)cc(C(F)(F)F)c1)N1CCN(c2ccc3nncn3n2)CC1 | 1700 | Non-Toxic | 
O=C(Cc1cc(Cl)cc(Cl)c1)N1CCN(c2ccc3nncn3n2)CC1 | 1200 | Non-Toxic | 
O=C(Cc1ccc(F)c(F)c1)N1CCN(c2ccc3nncn3n2)CC1 | 760 | Non-Toxic | 
Cc1ccc(CC(=O)N2CCN(c3ccc4nncn4n3)CC2)cc1 | 10000 | Non-Toxic | 
O=C(Cc1ccc(Cl)cc1Cl)N1CCN(c2ccc3nncn3n2)CC1 | > 25000 | Non-Toxic | 
O=C(Cc1ccc(F)c(CO)c1)N1CCN(c2ccc3nncn3n2)CC1 | 17000 | Non-Toxic | 
COc1cc(CC(=O)N2CCN(c3ccc4nncn4n3)CC2)ccc1F | 1000 | Non-Toxic | 
O=C(Cc1cc(F)c(F)c(F)c1)N1CCN(c2ccc3nncn3n2)CC1 | 400 | Non-Toxic | 
